Assay results published in patent US20100203021A1, “PROVISION OF NEW CARDIOMYOCYTE PROGENITOR CELLS AND CARDIOMYOCYTES DERIVED THEREFROM” (LEAD PHARMA CEL MODELS IP B.V., priority 2007, published 2010).

Legend:
Format in all cases: cell-based, human
[1] = tested on: Smad2; test: Western blot for TGFβ induced Smad2 phosphorylation in CMPCs; conditions: 1 ng/ml TGFβ, Western blot α-pSmad2
Description: (§1) To determine whether CMPCs of the invention were capable of responding to TGFβ ligand we examined their ability to phosphorylate smad proteins. TGFβ exerts its effect by binding to a complex of type I and type II receptor and phosphorylating Smads^30. TGFβ phosphorylates Smad2 while BMP phosphorylates Smad1. […] To examine the effect of TGFβ on cardiomyocyte differentiation, hCMPCs were plated at 2×10^4 cells per cm^2 in differentiation medium, treated with 5-aza for 24 hours and cultured for up to 3 weeks in differentiation medium supplemented with TGFβ (1 ng/ml).
(§2) FIG. 3: (A) Western blot analysis on protein samples isolated from CMPCs stimulated without or with 1 ng/ml TGFβ or 25 ng/ml BMP-6 and probed with α-pSmad1 or α-pSmad2. Asterisk indicates an non-specific band showing equal loading. B) Semi-quantitative RT-PCR on RNA isolated from CMPCs stimulated without or with 1 ng/ml TGFβ for the indicated days probed for the expression of the early cardiac transcription factors Nkx2.5 and Mef2C, the contractile proteins cardiac actin, cardiac Troponin I, desmin, ANP and MLC2v. β-actin was used as a control for equal RNA input. C) Western blot analysis on protein samples from CMPCs stimulated without or with 1 ng/ml TGF for the indicated days, probed for Nkx2.5 or α-actinin. […] Counterstaining of nuclei was performed using DAPI. Bar=50 μm. […]

[2] = tested on: hCMPCs; test: Differentiation of hCMPCs into cardiomyocytes (5-azacytidine, ascorbic acid, TGFβ); RT-PCR, Western blot, α-actinin immunofluorescence
Description: For a cell type to be suitable for cardiomyocyte replacement therapies, it should not only be able to proliferate but also differentiate efficiently into cardiomyocytes. To study the capacity of the hCMPCs of the invention to differentiate into cardiomyocytes, cells were plated at 10^5 per cm^2 in differentiation medium containing ascorbic acid and treated with 5-azacytidine (which is a demethylating agent).
as §1
To induce differentiation, cells were treated with 5 μM 5′-azacytidine (Sigma) for 72 hours in differentiation medium (Iscove's Modified Dulbecco's Medium/HamsF12 (1:1) (Gibco)) supplemented with L-Glutamine (Gibco), 2% horse serum, non-essential amino acids, Insulin-Transferrin-Selenium supplement, and 10^−4 M Ascorbic Acid (Sigma)). After induction, the medium was changed every 3 days.
For TGFβ treatment, CMPCs were cultured in differentiation medium, stimulated with 5 μM 5′-azacytidine (Sigma) and 1 ng/ml TGFβ1 (Sigma) added 24 hours later. The medium was changed every 3 days.
RNA was isolated using of Trizol (Invitrogen, Breda, The Netherlands) and reverse transcribed using oligo-dT Superscript 3 (Invitrogen). The PCR reactions started with 2 min at 94° C. followed by 35 cycles of: 15 s at 94° C., 30 s at 55° C. and 45 s at 72° C. Products were analyzed on ethidium bromide-stained 1% agarose gel. β-tubulin or β-actin were used as RNA input control.
Coverslips with cultured cells were rinsed in serum free medium, fixed in methanol (−20° C.) or 4% paraformaldehyde, washed with PBS and permeabilized with 0.2% Triton X-100/PBS. Non-specific binding of antibodies was blocked with 2% bovine serum albumin (BSA). Incubation with primary antibodies was performed overnight in PBS/10% normal goat serum (NGS). Antibodies used recognized GATA-4 (Santa Cruz), Islets-1 (Hybridoma Bank), Cx40 (Chemicon), Cx43 (Zymed), Cx45 (kindly provided by Dr. T. H. Steinberg, Washington University, St. Louis, USA), α-actinin (Sigma), Troponin I (Chemicon) desmin (Sanbio), titin (Sigma), MLC2v (Alexis), β-MHC (kindly provided by Dr. A. F. M. Moorman, AMC Amsterdam, Netherlands), N-cadherin (Sigma) and ZO-1 (Zymed). Immunolabeling was performed using Texas Red (TR)- or fluorescein isothiocyanate (FITC)-conjugated secondary antibodies (Jackson Laboratories). All incubation steps were performed at room temperature and in between all incubation steps, cells were washed with PBS. Finally, coverslips were mounted in Vectashield (Vector Laboratories) and examined with a Nikon Optiphot-2 light microscope equipped for epifluorescence.
Western blot analysis was performed as described previously^35. Detection was by ECL (Amersham). […]

[3] = tested on: CMPC; test: In vitro angiogenesis assay: tube formation by CMPC on Matrigel/ECMatrix; conditions: CMPCs on Matrigel, addition of VEGF
Source text: We have also established differentiation of CMPCs of the invention into tubular vascular structures (angiogenesis) on Matrigel, said “tubular vascular structures” which are sometimes also denoted herein as “tubular structures” containing aligned endothelial cells encircled by smooth muscle cells. […] The formation of these newly formed capillary tubes can be visualised for example by staining α-SMA (a smooth muscle actin) on smooth muscle cells and/or PECAM-1 (platelet endothelial cell adhesion molecule-1, CD31) on endothelial cells (see also appended Example 8). Antibodies which can be used in this regard are exemplified in the following: SMA antibody: AB5694 from abcam, clone 1A4, Sigma, cat. Number: A2547, or Dako, cat. Number M08510. Endothelial cells: PECAM-1 clone 9G11 or CD34 clone Qbend/10 form Biogenex or CD31 from Sigma and ve-cadherin from Santa Cruz.
In this case the assay is set up in order to test the influence of diverse compounds (i.e. chemical compounds or miRNA etc.) on tube formation by CMPC (cardio mycocyte progenitor cells). In order for these cells to form tubes these cells have to differentiate into smooth muscle cells and endothelial cells.
The formation of these newly formed capillary tubes is visualised by staining α-SMA (α smooth muscle actin) on smooth muscle cells and PECAM-1 (platelet endothelial cell adhesion molecule-1, CD31) on endothelial cells. […]

[4] = tested on: Smad1; test: Western blot for BMP induced Smad1 phosphorylation in CMPCs; conditions: 25 ng/ml BMP-6, Western blot α-pSmad1
Description: as §1, §2

TGFβ: TGFβ1 (Sigma), 1 ng/ml, added to differentiation medium
Smad2 phosphorylation [1]: TGFβ induced Smad2 phosphorylation | expression of Nkx2.5 and α-actinin (Western blot) ([2]; CMPCs, 7 days of culture in the presence of TGFβ 1 ng/ml): increased dramatically | percentage of α-actinin positive cells ([2]; hCMPCs, 5-aza 24 hours, then TGFβ 1 ng/ml, immunofluorescent staining): ~100% | expression of cardiac genes Troponin-I, ANP, cardiac-actin and desmin (RT-PCR) ([2]; hCMPCs, 5-aza, TGFβ 1 ng/ml, undetectable in its absence): already observed 7 days after the initiation of differentiation | MLC2v expression (RT-PCR) ([2]; hCMPCs, 5-aza, TGFβ 1 ng/ml, without TGFβ only after 3 weeks): already present after two weeks

VEGF
formation of capillary tubes [3]: can be induced

Nc1ncn([C@@H]2O[C@H](CO)[C@@H](O)[C@H]2O)c(=O)n1 [5-azacytidine, reference compound]
differentiation of hCMPCs into cardiomyocytes (beating areas) ([2]; hCMPCs 10^5 per cm^2, differentiation medium with ascorbic acid, three weeks after treatment): spontaneously beating areas were observed

B1: BMP: bone morphogenetic protein; 25 ng/ml BMP-6 in FIG. 3A (protein, UniProt P22004 375-513, looked up)
Bone morphogenetic protein 6: SASSRRRQQSRNRSTQSQDVARVSSASDYNSSELKTACRKHELYVSFQDLGWQDWIIAPKGYAANYCDGECSFPLNAHMNATNHAIVQTLVHLMNPEYVPKPCCAPTKLNAISVLYFDDNSNVILKKYRNMVVRACGCH
Smad1 phosphorylation [4]: clear BMP induced Smad1 phosphorylation
